This assay addresses T1, human TREM2 (Homo sapiens, UniProt Q9NZC2).
T1 construct: expressed in transfected cells; host or cells: HEK293T (HEK293T-hTREM2 cells)
Nature of the assay: Cellular phosphorylation of Syk (AlphaLisa) in HEK293T-hTREM2 cells, TREM2 agonist potency. It is filed as cell-based. Conditions: HEK293 cells expressing human TREM2 and DAP12, pSyk AlphaLisa. How it is done: In Vitro Measurement of Triggering Receptor Expressed on Myeloid Cells 2 Activity Using Cellular Phosphorylation of Spleen Tyrosine Kinase (“Syk”) Assays
Measurement of TREM2 agonist potency was done using a HEK cell line expressing human TREM2 and DAP12 (HEK293T-hTREM2 cells). Binding of small molecules to, and activation of, TREM2 increases the phosphorylation of Syk. The resultant levels of Syk phosphorylation are measured using a commercial AlphaLisa reagent kit. To perform the assay, HEK-hTREM2 cells were plated at 14,000 cells per well in a 384 well plate, in 25 μL of complete growth media and incubated at 37° C., 5% CO2 for 20-24 hours.
Prior to the assay, test compounds were diluted in the 384 well plates in assay buffer and allowed to equilibrate for 30 minutes. Growth media was removed from cell plates by inversion on blotting paper, and 25 μL of test articles in assay buffer was added to cells. Cells were incubated for 45 minutes at room temperature. After 45 minutes, assay buffer was removed and 10 μL of lysis buffer was added. Plates were shaken for 20 minutes at 350 RPM at room temperature. After complete lysis, AlphaLisa reagents were added to the lysate, and fluourescence intensity was measured using a Perkin Elmer Envision plate reader. Intensities were used to generate a standard curve, and % activation was calculated. Curve fitting was performed using Prism v9 software, log(agonist) vs response—variable slope (four parameters), and EC50s were calculated from the curve fit.
The results presented in Table D have been generated with the in vitro assay described above. This assay may be used to test any of the compounds described herein to assess and characterize a compound's ability to act as an agonist of TREM2.
(In general: Bead proximity is the source of the signal in Alpha formats.)

T1 sequence (Q9NZC2 19-230): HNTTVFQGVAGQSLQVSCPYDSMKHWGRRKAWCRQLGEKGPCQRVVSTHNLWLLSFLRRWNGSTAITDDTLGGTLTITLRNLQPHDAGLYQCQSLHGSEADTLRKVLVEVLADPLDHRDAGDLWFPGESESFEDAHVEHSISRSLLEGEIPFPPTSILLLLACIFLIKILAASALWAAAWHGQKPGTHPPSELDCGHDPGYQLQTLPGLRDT
T1 sequence (O43914 22-113 partner): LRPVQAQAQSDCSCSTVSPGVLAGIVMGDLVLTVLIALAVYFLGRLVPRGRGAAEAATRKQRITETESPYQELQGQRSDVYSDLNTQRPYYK

For the compound `CC(C)C(=O)Nc1nc2c(=O)n(CCc3ccccc3)nc(-c3ccc(Cl)cc3)c2s1` [compound 35, N-[7-(4-chlorophenyl)-4-oxo-5-(2-phenylethyl)thiazolo[4,5-d]pyridazin-2-yl]-2-methyl-propanamide], the half-maximal effective concentration (EC50) (usually the concentration giving half of the maximal effect) (Table D) was in the range of 3 to 100 µM.

In the case of `COc1ccc(-c2nn(-c3ccnc(C4COC4)c3)c(=O)c3cc(C)c(C)cc23)cc1` [I-108, 4-(4-methoxyphenyl)-6,7-dimethyl-2-[2-(oxetan-3-yl)-4-pyridyl]phthalazin-1-one], the EC50 (Table D-2) lay in the range of 0.5 to 3 µM.

For the setting “Table D”, `Cc1nc2c(=O)n(CC(C)c3ccc(Cl)cc3)nc(-c3ccc(Cl)cc3)c2s1` (centres unmarked) [compound 31, 7-(4-chlorophenyl)-5-(2-(4-chlorophenyl)propyl)-2-methylthiazolo[4,5-d]pyridazin-4(5H)-one] came in with an EC50 of 3 to 100 µM.

Compound `Cc1nc2c(=O)n(CCc3ccccc3)nc(-c3ccccc3)c2s1` [compound 29, 2-methyl-5-phenethyl-7-phenylthiazolo[4,5-d]pyridazin-4(5H)-one] gave an EC50 (Table D) of 3 to 100 µM.

With `Cc1cc2c(-c3ccc(Cl)cc3)nn(-c3ccnc(OC4CNC4)c3)c(=O)c2nc1C` [I-94, 7-[2-(azetidin-3-yloxy)-4-pyridyl]-5-(4-chlorophenyl)-2,3-dimethyl-pyrido[2,3-d]pyridazin-8-one; 2,2,2-trifluoroacetic acid], the EC50 (Table D-2) fell in the range of 0.5 to 3 µM.

The compound `Cc1nc2c(=O)n(-c3ccc(C(=O)NC(C)C)cc3)nc(-c3ccc(Cl)cc3)c2s1` [compound 38, 4-(7-(4-chlorophenyl)-2-methyl-4-oxothiazolo[4,5-d]pyridazin-5(4H)-yl)-N-isopropylbenzamide] yielded an EC50 (Table D) of 3 to 100 µM.

`Cc1cc2c(-c3ccc(Cl)cc3)cn(-c3ccc(OC(F)(F)F)cc3)c(=O)c2nc1C` [I-122, 5-(4-chlorophenyl)-2,3-dimethyl-7-(4-(trifluoromethoxy)phenyl)-1,7-naphthyridin-8 (7H)-one] showed an EC50 (Table D-2) of 0.5 to 3 µM.

Take `CN1CCC(n2nc(-c3ccc(Cl)cc3)c3cc(Cl)c(Cl)cc3c2=O)CC1=O` (centres unmarked) [compound 21, 6,7-dichloro-4-(4-chlorophenyl)-2-(1-methyl-2-oxopiperidin-4-yl)phthalazin-1(2H)-one]: the EC50 (Table D) fell in the range of 3 to 100 µM.

In the case of `Cc1cc2c(-c3ccc(Cl)cc3)nn(-c3ccnc(NC4COC4)c3)c(=O)c2nc1C` [I-116, 5-(4-chlorophenyl)-2,3-dimethyl-7-(2-(oxetan-3-ylamino)pyridin-4-yl)pyrido[2,3-d]pyridazin-8 (7H)-one], the EC50 (Table D-2) was 0.5 to 3 µM.

In the case of `Cc1cc2c(-c3ccc(Cl)c(Cl)c3)nn(-c3ccnc(C4COC4)c3)c(=O)c2cc1C` [I-107, 4-(3,4-dichlorophenyl)-6,7-dimethyl-2-[2-(oxetan-3-yl)-4-pyridyl]phthalazin-1-one], the EC50 (Table D-2) was in the range of 0.5 to 3 µM.

Turning to `Nc1nc2c(=O)n(CCc3ccccc3)nc(-c3ccc(Cl)cc3)c2s1` [compound 33, 2-amino-7-(4-chlorophenyl)-5-phenethylthiazolo[4,5-d]pyridazin-4(5H)-one], under “Table D”, the half-maximal effective concentration (EC50) was 3 to 100 µM.

`Cc1cc2c(-c3ccc(Cl)cc3)nn(-c3ccnc(C4CCN(C(=O)OC(C)(C)C)CC4)c3)c(=O)c2cc1C` [compound 22, tert-butyl 4-(4-(4-(4-chlorophenyl)-6,7-dimethyl-1-oxophthalazin-2(1H)-yl)pyridin-2-yl)piperidine-1-carboxylate]: the concentration giving a half-maximal response (EC50) (Table D) fell in the range of 0.5 to 3 µM.

Where the note is “Table D”, `Cc1nc2c(=O)n(CC(O)c3ccc(Cl)cc3)nc(-c3ccc(Cl)cc3)c2s1` (centres unmarked) [compound 26, 7-(4-chlorophenyl)-5-(2-(4-chlorophenyl)-2-hydroxyethyl)-2-methylthiazolo[4,5-d]pyridazin-4(5H)-one] displayed a half-maximal effective concentration (EC50) of 3 to 100 µM.

`Cc1nc2c(=O)n(CC(=O)c3ccc(Cl)cc3)nc(-c3ccc(Cl)cc3)c2s1` [compound 24, 7-(4-chlorophenyl)-5-(2-(4-chlorophenyl)-2-oxoethyl)-2-methylthiazolo[4,5-d]pyridazin-4(5H)-one] showed an EC50 (Table D) of 3 to 100 µM.

Consider `Cc1cc2c(-c3ccc(Cl)cc3)nn(-c3ccnc(Nc4cnn(C5CC5)c4)c3)c(=O)c2nc1C` [I-120, 5-(4-chlorophenyl)-7-(2-((1-cyclopropyl-1H-pyrazol-4-yl)amino)pyridin-4-yl)-2,3-dimethylpyrido[2,3-d]pyridazin-8 (7H)-one], for which the EC50 (Table D-2) lay in the range of 0.05 to 0.5 µM.

Take `Cc1cc2c(-c3ccc(Cl)cc3)nn(-c3ccnc(C4CNC4)c3)c(=O)c2cc1C` [compound 16, 2-(2-(azetidin-3-yl)pyridin-4-yl)-4-(4-chlorophenyl)-6,7-dimethylphthalazin-1(2H)-one]: the EC50 (Table D) lay within 0.5 to 3 µM.

For the setting “Table D-2”, `Cc1cc2c(-c3ccc(Cl)cc3)nn(-c3ccnc(NC4CCOC4)c3)c(=O)c2nc1C` (racemic) [I-113, 5-(4-chlorophenyl)-2,3-dimethyl-7-(2-((tetrahydrofuran-3-yl)amino)pyridin-4-yl)pyrido[2,3-d]pyridazin-8 (7H)-one] displayed an EC50 of 0.5 to 3 µM.

Compound `Cc1nc2c(=O)n(CCc3ccccc3)nc(-c3ccc(O)cc3)c2s1` [compound 39, 7-(4-hydroxyphenyl)-2-methyl-5-phenethylthiazolo[4,5-d]pyridazin-4(5H)-one] returned an EC50 (Table D) of 3 to 100 µM.

For `Cc1cc2c(-c3ccc(Cl)cc3)nn(-c3ccnc(C4CCC4)c3)c(=O)c2cc1C` [compound 15, 4-(4-chlorophenyl)-2-(2-cyclobutylpyridin-4-yl)-6,7-dimethylphthalazin-1(2H)-one], under “Table D”, the EC50 was 0.5 to 3 µM.

In the case of `Cc1cc2c(-c3ccc(F)cc3)nn(-c3ccc(OC(F)(F)F)cc3)c(=O)c2nc1C` [I-121, 5-(4-fluorophenyl)-2,3-dimethyl-7-(4-(trifluoromethoxy)phenyl)pyrido[2,3-d]pyridazin-8 (7H)-one], for the setting “Table D-2”, the EC50 fell in the range of 3 to 100 µM.

Under “Table D”, `CC(=O)N1CCC(n2nc(-c3ccc(Cl)cc3)c3cc(Cl)c(Cl)cc3c2=O)CC1` [compound 13, 2-(1-acetylpiperidin-4-yl)-6,7-dichloro-4-(4-chlorophenyl)phthalazin-1(2H)-one] displayed an EC50 of 3 to 100 µM.

Consider `Cc1nc2c(=O)n(-c3ccc(C(=O)O)cc3)nc(-c3ccc(Cl)cc3)c2s1` [compound 42, 4-(7-(4-chlorophenyl)-2-methyl-4-oxothiazolo[4,5-d]pyridazin-5(4H)-yl)benzoic acid], for which the EC50 (Table D) was in the range of 0.05 to 0.5 µM.

Take `Cc1cc2c(-c3ccc(Cl)cc3)nn(-c3ccc(OC(F)(F)F)cc3)c(=O)c2cc1C` [compound 10, 4-(4-chlorophenyl)-6,7-dimethyl-2-(4-(trifluoromethoxy)phenyl)phthalazin-1(2H)-one]: the EC50 (Table D) is 0.5 to 3 µM.

Consider `CC(C)Oc1cc(-n2nc(-c3ccc(Cl)cc3)c3cc(Cl)c(Cl)cc3c2=O)ccn1` [compound 12, 6,7-dichloro-4-(4-chlorophenyl)-2-(2-isopropoxypyridin-4-yl)phthalazin-1(2H)-one], for which, where the note is “Table D”, the EC50 lay in the range of 0.5 to 3 µM.

In turn, `Cc1cc2c(-c3ccc(Cl)cc3)nn(-c3ccnc(C4CC(OCc5ccccc5)C4)c3)c(=O)c2cc1C` (centres unmarked) [I-109, 2-(2-(3-(benzyloxy)cyclobutyl)pyridin-4-yl)-4-(4-chlorophenyl)-6,7-dimethylphthalazin-1 (2H)-one] had an EC50 (Table D-2) of 0.5 to 3 µM.

The compound `Cc1cc2c(-c3ccc(Cl)cc3)nn(-c3ccnc(C4COC4)c3)c(=O)c2nc1C` [I-112, 5-(4-chlorophenyl)-2,3-dimethyl-7-[2-(oxetan-3-yl)-4-pyridyl]pyrido [2,3-d]pyridazin-8-one] gave an EC50 (Table D-2) of 3 to 100 µM.

In the case of `Cc1cc2c(-c3ccc(Cl)cc3)nn(-c3ccc(NC4COC4)nc3)c(=O)c2nc1C` [I-118, 5-(4-chlorophenyl)-2,3-dimethyl-7-[6-(oxetan-3-ylamino)-3-pyridyl]pyrido [2,3-d]pyridazin-8-one; formic acid], the EC50 (Table D-2) is 0.5 to 3 µM.

As for `Cc1cc2c(-c3ccc(Cl)cc3F)nn(-c3ccnc(C4COC4)c3)c(=O)c2cc1C` [I-111, 4-(4-chloro-2-fluoro-phenyl)-6,7-dimethyl-2-[2-(oxetan-3-yl)-4-pyridyl]phthalazin-1-one], for the setting “Table D-2”, the EC50 fell in the range of 0.5 to 3 µM.

Compound `CNC(Cn1nc(-c2ccc(Cl)cc2)c2sc(C)nc2c1=O)c1ccc(Cl)cc1` (centres unmarked) [compound 25, 7-(4-chlorophenyl)-5-(2-(4-chlorophenyl)-2-(methylamino)ethyl)-2-methylthiazolo[4,5-d]pyridazin-4(5H)-one] showed an EC50 (Table D) of 3 to 100 µM.

In turn, `O=c1c2nc(NCC3CC3)sc2c(-c2ccc(Cl)cc2)nn1CCc1ccccc1` [compound 36, 7-(4-chlorophenyl)-2-(cyclopropylmethylamino)-5-(2-phenylethyl)thiazolo[4,5-d]pyridazin-4-one] returned an EC50 (Table D) of 3 to 100 µM.

Compound `Cc1nc2c(=O)n(C(C)c3ccc(Cl)cc3)nc(-c3ccc(Cl)cc3)c2s1` (centres unmarked) [compound 27, 7-(4-chlorophenyl)-5-(1-(4-chlorophenyl)ethyl)-2-methylthiazolo[4,5-d]pyridazin-4(5H)-one] gave an EC50 (Table D) of 3 to 100 µM.

Consider `Cc1cc2c(-c3ccc(Cl)cc3)nn(-c3ccc(OC(F)(F)F)cc3)c(=O)c2nc1C` [compound 1, 5-(4-chlorophenyl)-2,3-dimethyl-7-(4-(trifluoromethoxy)phenyl)pyrido[2,3-d]pyridazin-8 (7H)-one], for which the EC50 (Table D) lay within 0.5 to 3 µM.

Values taken from patent publication US20260152484A1, “HETEROCYCLIC COMPOUNDS AS TRIGGERING RECEPTOR EXPRESSED ON MYELOID CELLS 2 AGONISTS” (Vigil Neuroscience, Inc., priority 2021, published 2026).
